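A five-concentration, 48-hour dose response in 96-well plates underlies each endpoint, interpolated linearly between surrounding concentrations. TGI denotes the concentration required for complete inhibition of growth.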
How the values were obtained:
Test in all cases: NCI-60 cell line screen, 48 h
PC-3 prostate = tested on: PC-3 prostate
SF-268 CNS = tested on: SF-268 CNS
SK-OV-3 ovarian = tested on: SK-OV-3 ovarian
SN12C renal = tested on: SN12C renal
M14 melanoma = tested on: M14 melanoma
HS 578T breast = tested on: HS 578T breast
RPMI-8226 leukemia = tested on: RPMI-8226 leukemia
DU-145 prostate = tested on: DU-145 prostate
KM12 colon = tested on: KM12 colon
A549 NSCLC = tested on: A549 NSCLC
EKVX NSCLC = tested on: EKVX NSCLC
OVCAR-3 ovarian = tested on: OVCAR-3 ovarian
LOX IMVI melanoma = tested on: LOX IMVI melanoma
UACC-62 melanoma = tested on: UACC-62 melanoma
NCI-H460 lung = tested on: NCI-H460 lung
SW-620 colon = tested on: SW-620 colon
SK-MEL-5 melanoma = tested on: SK-MEL-5 melanoma
MOLT-4 leukemia = tested on: MOLT-4 leukemia
OVCAR-4 ovarian = tested on: OVCAR-4 ovarian
SK-MEL-2 melanoma = tested on: SK-MEL-2 melanoma
NCI-H522 lung = tested on: NCI-H522 lung
NCI/ADR-RES ovarian = tested on: NCI/ADR-RES ovarian
TK-10 renal = tested on: TK-10 renal
OVCAR-8 ovarian = tested on: OVCAR-8 ovarian
IGROV1 ovarian = tested on: IGROV1 ovarian
K-562 leukemia = tested on: K-562 leukemia
MDA-MB-231 breast = tested on: MDA-MB-231 breast
HCT-15 colon = tested on: HCT-15 colon
BT-549 breast = tested on: BT-549 breast
COLO 205 colon = tested on: COLO 205 colon
U251 CNS = tested on: U251 CNS
NCI-H23 lung = tested on: NCI-H23 lung
MALME-3M melanoma = tested on: MALME-3M melanoma
OVCAR-5 ovarian = tested on: OVCAR-5 ovarian
786-0 renal = tested on: 786-0 renal
CCRF-CEM leukemia = tested on: CCRF-CEM leukemia
SK-MEL-28 melanoma = tested on: SK-MEL-28 melanoma
HOP-62 NSCLC = tested on: HOP-62 NSCLC
SNB-75 CNS = tested on: SNB-75 CNS
CAKI-1 renal = tested on: CAKI-1 renal
MDA-N = tested on: MDA-N
HCT-116 colon = tested on: HCT-116 colon
MDA-MB-435 = tested on: MDA-MB-435
HT29 colon = tested on: HT29 colon
ACHN renal = tested on: ACHN renal
SF-295 CNS = tested on: SF-295 CNS
HOP-92 NSCLC = tested on: HOP-92 NSCLC
SF-539 CNS = tested on: SF-539 CNS
MCF7 breast = tested on: MCF7 breast
NCI-H226 lung = tested on: NCI-H226 lung
SNB-19 CNS = tested on: SNB-19 CNS
HCC-2998 colon = tested on: HCC-2998 colon
T-47D breast = tested on: T-47D breast
UO-31 renal = tested on: UO-31 renal
UACC-257 melanoma = tested on: UACC-257 melanoma

## COc1ccc2c(c1)-c1[nH]c3ccccc3c1CC2
PC-3 prostate
  TGI: 29.6 µM
SF-268 CNS
  TGI: 28.4 µM
SK-OV-3 ovarian
  TGI: 33.6 µM
SN12C renal
  TGI: 29.9 µM
M14 melanoma
  TGI: 31.5 µM
HS 578T breast
  TGI: 30.6 µM
RPMI-8226 leukemia
  TGI: 71.2 µM
DU-145 prostate
  TGI: 33.5 µM
KM12 colon
  TGI: 26.8 µM
A549 NSCLC
  TGI: 30.4 µM
EKVX NSCLC
  TGI: 21.9 µM
OVCAR-3 ovarian
  TGI: 33.2 µM
LOX IMVI melanoma
  TGI: 36.3 µM
UACC-62 melanoma
  TGI: 29.4 µM
NCI-H460 lung
  TGI: 29.9 µM
SW-620 colon
  TGI: 31.6 µM
SK-MEL-5 melanoma
  TGI: 28.2 µM
MOLT-4 leukemia
  TGI: 36.2 µM
OVCAR-4 ovarian
  TGI: 32.4 µM
SK-MEL-2 melanoma
  TGI: 29.4 µM
NCI-H522 lung
  TGI: 20.3 µM
NCI/ADR-RES ovarian
  TGI: 24.3 µM
TK-10 renal
  TGI: 31.7 µM
OVCAR-8 ovarian
  TGI: 25.1 µM
IGROV1 ovarian
  TGI: 18.8 µM
K-562 leukemia
  TGI: > 100 µM
MDA-MB-231 breast
  TGI: 33.8 µM
HCT-15 colon
  TGI: 29.6 µM
BT-549 breast
  TGI: 31.3 µM
COLO 205 colon
  TGI: 32.3 µM
U251 CNS
  TGI: 30.8 µM
NCI-H23 lung
  TGI: 26.9 µM
MALME-3M melanoma
  TGI: 25.6 µM
OVCAR-5 ovarian
  TGI: 29 µM
786-0 renal
  TGI: 32.2 µM
CCRF-CEM leukemia
  TGI: 50.8 µM
SK-MEL-28 melanoma
  TGI: 32.1 µM
HOP-62 NSCLC
  TGI: 30.8 µM
SNB-75 CNS
  TGI: 28.9 µM
CAKI-1 renal
  TGI: 29.4 µM
MDA-N
  TGI: 31.6 µM
HCT-116 colon
  TGI: 31.8 µM
MDA-MB-435
  TGI: 31.7 µM
HT29 colon
  TGI: 22.9 µM
ACHN renal
  TGI: 32.3 µM
SF-295 CNS
  TGI: 27.3 µM
HOP-92 NSCLC
  TGI: 31.8 µM
SF-539 CNS
  TGI: 31.2 µM
MCF7 breast
  TGI: 29.7 µM
NCI-H226 lung
  TGI: 26.2 µM
SNB-19 CNS
  TGI: 30.9 µM
HCC-2998 colon
  TGI: 23.6 µM
T-47D breast
  TGI: 29.1 µM
UO-31 renal
  TGI: 29.5 µM
UACC-257 melanoma
  TGI: 30.8 µM
